Reference: the NIST ThermoML archive (doi:10.1021/je300102d)
Numbers after ± are expanded uncertainties.

Assay: xn = mol fraction of the nth substance listed
Settings: 101 kPa, Liquid; for viscosity: Concentric cylinders viscometry; for mass density: Vibrating tube method

N [ammonia] + O
Settings | mass density, x1 = 0.0268 [kg/m3] | mass density, x1 = 0.0505 [kg/m3] | mass density, x1 = 0.1124 [kg/m3] | mass density, x1 = 0.148 [kg/m3] | mass density, x1 = 0.3043 [kg/m3] | viscosity, x1 = 0.0111 [mPa·s] | viscosity, x1 = 0.0262 [mPa·s] | viscosity, x1 = 0.0279 [mPa·s] | viscosity, x1 = 0.1147 [mPa·s] | viscosity, x1 = 0.176 [mPa·s]
283.15 K | 988.73 ± 0.2 | 979.82 ± 0.2 | 957.85 ± 0.2 | 944.97 ± 0.21 | 895.9 ± 0.22 | 1.313 ± 0.053 | 1.428 ± 0.058 | 1.352 ± 0.055 | 1.559 ± 0.063 | 1.713 ± 0.069
293.15 K | 986.79 ± 0.2 | 977.5 ± 0.2 | 954.52 ± 0.2 | 941.01 ± 0.21 | 889.82 ± 0.22 | 1.025 ± 0.042 | 1.074 ± 0.043 | 1.046 ± 0.042 | 1.157 ± 0.047 | 1.289 ± 0.052
303.15 K | 983.98 ± 0.2 | 974.43 ± 0.2 | 950.65 ± 0.2 | 936.67 ± 0.21 | – | 0.8106 ± 0.033 | 0.845 ± 0.034 | 0.8278 ± 0.034 | 0.9025 ± 0.037 | 0.9955 ± 0.04
313.15 K | 980.32 ± 0.2 | 970.59 ± 0.2 | 946.14 ± 0.2 | 931.7 ± 0.21 | – | 0.672 ± 0.027 | 0.7124 ± 0.029 | 0.6922 ± 0.028 | 0.7653 ± 0.031 | 0.8467 ± 0.034
323.15 K | 975.98 ± 0.2 | 966.09 ± 0.2 | 940.98 ± 0.2 | 926.12 ± 0.21 | – | 0.5645 ± 0.023 | 0.5945 ± 0.024 | 0.5795 ± 0.024 | 0.6297 ± 0.026 | 0.6829 ± 0.028

C1CNCCN1 [piperazine] + O
Settings | mass density, x1 = 0.00181 [kg/m3] | mass density, x1 = 0.00367 [kg/m3] | mass density, x1 = 0.00741 [kg/m3] | mass density, x1 = 0.01119 [kg/m3] | mass density, x1 = 0.01938 [kg/m3] | viscosity, x1 = 0.000906 [mPa·s] | viscosity, x1 = 0.00182 [mPa·s] | viscosity, x1 = 0.00366 [mPa·s] | viscosity, x1 = 0.00553 [mPa·s] | viscosity, x1 = 0.00742 [mPa·s]
283.15 K | 1000.15 ± 0.2 | 1000.51 ± 0.2 | 1001.34 ± 0.2 | 1002.24 ± 0.2 | 1004.7 ± 0.2 | 1.33 ± 0.054 | 1.362 ± 0.055 | 1.393 ± 0.056 | 1.462 ± 0.059 | 1.533 ± 0.062
293.15 K | 998.63 ± 0.2 | 998.98 ± 0.2 | 999.75 ± 0.2 | 1000.58 ± 0.2 | 1002.52 ± 0.2 | 1.012 ± 0.041 | 1.043 ± 0.042 | 1.092 ± 0.044 | 1.119 ± 0.045 | 1.174 ± 0.048
303.15 K | 996.1 ± 0.2 | 996.42 ± 0.2 | 997.15 ± 0.2 | 997.91 ± 0.2 | 999.69 ± 0.2 | 0.8241 ± 0.034 | 0.8339 ± 0.034 | 0.8791 ± 0.036 | 0.8894 ± 0.036 | 0.9414 ± 0.038
313.15 K | 992.66 ± 0.2 | 992.99 ± 0.2 | 993.68 ± 0.2 | 994.37 ± 0.2 | 996.04 ± 0.2 | 0.6757 ± 0.028 | 0.6868 ± 0.028 | 0.7176 ± 0.029 | 0.7531 ± 0.031 | 0.78 ± 0.032
323.15 K | 988.51 ± 0.2 | 988.81 ± 0.2 | 989.47 ± 0.2 | 990.14 ± 0.2 | 991.64 ± 0.2 | 0.5816 ± 0.024 | 0.5923 ± 0.024 | 0.621 ± 0.025 | 0.6448 ± 0.026 | 0.6604 ± 0.027

O [water] + N
x2 = 0
Settings | mass density [kg/m3] | viscosity [mPa·s]
283.15 K | 999.7 ± 0.2 | 1.307 ± 0.053
293.15 K | – | 1.002 ± 0.041
303.15 K | – | 0.7977 ± 0.032
313.15 K | – | 0.6532 ± 0.027
323.15 K | 988.04 ± 0.2 | 0.547 ± 0.023

O [water] + C1CNCCN1
x2 = 0
Settings | mass density [kg/m3] | viscosity [mPa·s]
283.15 K | 999.7 ± 0.2 | 1.307 ± 0.053
293.15 K | – | 1.002 ± 0.041
303.15 K | – | 0.7977 ± 0.032
313.15 K | – | 0.6532 ± 0.027
323.15 K | 988.04 ± 0.2 | 0.547 ± 0.023
